Test results reported in PMC10207366, “Screening and Biological Evaluation of Soluble Epoxide Hydrolase Inhibitors: Assessing the Role of Hydrophobicity in the Pharmacophore-Guided Search of Novel Hits” (Journal of Chemical Information and Modeling, 2023).
Like-named read-outs stand apart in the source and are kept apart here.

Tests used:
[1] = molecular target: T1, mouse sEH (msEH) (Mus musculus, UniProt P34914); assay: fluorescence-based sEH IC50 assay (CMNPC substrate); type: biochemical; conditions: experimental
T1 sequence (P34914 1-554): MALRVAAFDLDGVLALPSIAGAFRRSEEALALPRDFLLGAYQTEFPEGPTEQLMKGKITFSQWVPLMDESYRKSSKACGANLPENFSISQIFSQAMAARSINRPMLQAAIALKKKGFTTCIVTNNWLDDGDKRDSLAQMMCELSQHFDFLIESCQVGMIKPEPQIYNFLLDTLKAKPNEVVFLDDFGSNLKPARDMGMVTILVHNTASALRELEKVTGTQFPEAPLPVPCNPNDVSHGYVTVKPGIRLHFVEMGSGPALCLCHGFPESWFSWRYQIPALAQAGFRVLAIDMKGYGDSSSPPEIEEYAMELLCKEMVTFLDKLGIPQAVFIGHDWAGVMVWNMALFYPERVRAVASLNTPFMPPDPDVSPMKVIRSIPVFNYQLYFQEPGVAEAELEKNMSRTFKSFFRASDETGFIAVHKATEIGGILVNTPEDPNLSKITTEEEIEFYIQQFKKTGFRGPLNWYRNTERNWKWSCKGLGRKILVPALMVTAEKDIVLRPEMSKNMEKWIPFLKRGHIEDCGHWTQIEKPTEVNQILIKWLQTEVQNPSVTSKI
Protocol: (§1) The IC50 values of the 18 compounds selected from the log P + HB and QE + R3 pharmacophore ranking were determined using a fluorescence-based assay[68] with either purified recombinant hsEH, mouse sEH (msEH), or rat sEH (rsEH). The enzyme was incubated at 30 °C with the inhibitors ([I]final = 0.4–50,000 nM) for 5 min in 100 mM sodium phosphate buffer (200 μL, pH 7.4) containing 0.1 mg/mL of […] (BSA) and 1% dimethyl sulfoxide (DMSO). The substrate (cyano(6-methoxynaphthalen-2-yl)methyl((3-phenyloxiran-2-yl)methyl)carbonate; CMNPC) was then added ([S]final = 5 μM). The activity was assessed by measuring the appearance of the fluorescent 6-methoxynaphthaldehyde product (λex = 330 nm, λem = 465 nm) every 30 s for 10 min at 30 °C on a SpectraMax M2 (Molecular Devices, CA). The results were obtained by regression analysis from a linear region of the curve.

[2] = molecular target: T2, purified recombinant hsEH (Homo sapiens, UniProt P34913); assay: as above; type: biochemical
T2 sequence (P34913 1-555): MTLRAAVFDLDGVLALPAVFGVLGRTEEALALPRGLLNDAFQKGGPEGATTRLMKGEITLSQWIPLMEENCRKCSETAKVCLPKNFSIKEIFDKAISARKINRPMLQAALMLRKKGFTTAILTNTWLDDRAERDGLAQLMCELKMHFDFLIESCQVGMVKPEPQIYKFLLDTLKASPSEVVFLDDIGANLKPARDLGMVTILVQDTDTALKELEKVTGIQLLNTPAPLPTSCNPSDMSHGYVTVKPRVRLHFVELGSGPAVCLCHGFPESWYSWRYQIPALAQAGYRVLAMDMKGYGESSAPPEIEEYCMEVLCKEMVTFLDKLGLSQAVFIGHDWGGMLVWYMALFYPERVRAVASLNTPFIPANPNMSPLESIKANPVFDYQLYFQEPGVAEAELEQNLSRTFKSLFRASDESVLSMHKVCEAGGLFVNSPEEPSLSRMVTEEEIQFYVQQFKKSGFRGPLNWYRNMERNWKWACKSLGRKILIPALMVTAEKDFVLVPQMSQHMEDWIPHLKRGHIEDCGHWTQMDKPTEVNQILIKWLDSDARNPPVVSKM
Protocol: as §1

[3] = molecular target: T3, rat sEH (rsEH) (Rattus norvegicus, UniProt P80299); assay: as above; type: biochemical; conditions: experimental
T3 sequence (P80299 1-554): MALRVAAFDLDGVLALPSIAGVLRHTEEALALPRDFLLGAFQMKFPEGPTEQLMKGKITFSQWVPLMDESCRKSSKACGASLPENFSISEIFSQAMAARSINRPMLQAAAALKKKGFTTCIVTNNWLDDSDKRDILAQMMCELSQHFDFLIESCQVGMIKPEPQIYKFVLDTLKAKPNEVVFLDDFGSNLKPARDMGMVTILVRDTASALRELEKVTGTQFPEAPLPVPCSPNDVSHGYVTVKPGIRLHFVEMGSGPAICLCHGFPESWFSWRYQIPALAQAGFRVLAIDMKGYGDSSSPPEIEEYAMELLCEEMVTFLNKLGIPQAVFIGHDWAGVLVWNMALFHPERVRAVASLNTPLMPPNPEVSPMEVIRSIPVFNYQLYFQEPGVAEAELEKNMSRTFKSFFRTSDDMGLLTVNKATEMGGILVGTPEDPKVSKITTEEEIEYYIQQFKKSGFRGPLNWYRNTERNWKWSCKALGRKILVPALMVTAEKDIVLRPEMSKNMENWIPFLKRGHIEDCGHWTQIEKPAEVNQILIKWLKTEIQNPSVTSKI
Protocol: as §1

[4] = tested on: hsEH; conditions: training set, Table S1; ref reference publication (DOI) of Table S1; cited from earlier work
[5] = experimental, human sEH, read-out: pIC50 hsEH (converted)

Structure (SMILES)	IC50 [1] [µM]	IC50 [2, 5] [µM]	IC50 [3] [µM]	further results
Cc1ccc(C(C)C)c(OCc2ccc(C(=O)NNC(=O)NC34CC5CC(CC(C5)C3)C4)o2)c1 [AK-968/15603026, Cc1ccc(C(C)C)c(OCc2ccc(C(=O)NNC(=O)NC34CC5CC(CC(C5)C3)C4)o2)c1]	0.316	0.126	0.0398	–
O=C(N/N=C/c1c2ccccc2cc2ccccc12)NC12CC3CC(CC(C3)C1)C2 [AK-968/40204236, O=C(N/N=C/c1c2ccccc2cc2ccccc12)NC12CC3CC(CC(C3)C1)C2]	–	–	–	pIC50 msEH [1]: 5.8; pIC50 rsEH [3]: 6.5
O=C(NCCC(c1ccccc1)c1ccccc1)NC1CCCCC1 [AK-968/41927527, O=C(NCCC(c1ccccc1)c1ccccc1)NC1CCCCC1]	0.00126	0.000398	0.000398	IC50 hsEH ([2]; human enzyme): subnanomolar
O=C(CSc1nc(-c2ccccc2)cn1-c1ccccc1)NC(=O)Nc1ccccc1 [AO-476/43362680, O=C(CSc1nc(-c2ccccc2)cn1-c1ccccc1)NC(=O)Nc1ccccc1]	25.1	3.98	25.1	–
O=C(NC1CCC(Oc2ccc(C(=O)O)cc2)CC1)NC12CC3CC(CC(C3)C1)C2 (stereo not drawn) [TR_mol5, 4-[(trans-4-{[(3s,5s,7s)-tricyclo[3.3.1.1∼3,7∼]dec-1-ylcarbamoyl]amino}cyclohexyl)oxy]benzoic acid]	–	–	–	pIC50 [4]: 8.9
O=C(Nc1ccc2c(c1)-c1ccccc1S2(=O)=O)N1CCC(F)(F)CC1 [TR_mol15, N-(5,5-dioxodibenzothiophen-2-yl)-4,4-difluoro-piperidine-1-carboxamide]	–	–	–	pIC50 [4]: 7.8
O=C(NC[C@H]1COc2ccccc2O1)c1ccc2c(c1)N(Cc1cccc(Cl)c1)C(=O)CS2 [TR_mol17, 4-[(3-chlorophenyl)methyl]-N-[[(3S)-2,3-dihydro-1,4-benzodioxin-3-yl]methyl]-3-oxidanylidene-1,4-benzothiazine-6-carboxamide]	–	–	–	pIC50 [4]: 7.5
O=C(O)CCCNC(=O)NC1CCCCC1 [TR_mol23]	–	–	–	pIC50 [4]: 3.3
O=C(O)CCCCCNC(=O)NC1CCCCC1 [TR_mol33]	–	–	–	pIC50 [4]: 3.6
O=C(COC(=O)c1ccc(N2CCCC2=O)cc1)NC(=O)NC12CC3CC(CC(C3)C1)C2 [Z23294293, O=C(COC(=O)c1ccc(N2CCCC2=O)cc1)NC(=O)NC12CC3CC(CC(C3)C1)C2]	0.631	0.1	0.0398	–
O=C(NCCC(=O)N1CCN(S(=O)(=O)c2ccccc2F)CC1)NC12CC3CC(CC(C3)C1)C2 [Z29532165, O=C(NCCC(=O)N1CCN(S(=O)(=O)c2ccccc2F)CC1)NC12CC3CC(CC(C3)C1)C2]	0.398	0.501	0.0398	–
O=C(NNC(=O)c1ccc(COc2ccccc2)cc1)NC12CC3CC(CC(C3)C1)C2 [Z44611499, O=C(NNC(=O)c1ccc(COc2ccccc2)cc1)NC12CC3CC(CC(C3)C1)C2]	0.126	0.00631	0.02	IC50 ([2]; human enzyme, read-out: IC50 hsEH): < 0.02 µM
CC(C(=O)NC(=O)NC12CC3CC(CC(C3)C1)C2)N1CCN(C(=O)C2COc3ccccc3O2)CC1 (stereo not shown) [Z65159029, CC(C(=O)NC(=O)NC12CC3CC(CC(C3)C1)C2)N1CCN(C(=O)C2COc3ccccc3O2)CC1]	20	5.01	2	–
O=C(NCc1ccc(N2CCCC2=O)cc1)NCc1cccc(C(F)(F)F)c1 [Z211761694, O=C(NCc1ccc(N2CCCC2=O)cc1)NCc1cccc(C(F)(F)F)c1]	0.501	0.2	0.2	–
CC(NC(=O)NCc1ccc(N2CCCC2=O)cc1)c1cccc(Cl)c1 (stereo not shown) [Z211852480, CC(NC(=O)NCc1ccc(N2CCCC2=O)cc1)c1cccc(Cl)c1]	0.631	0.126	0.501	–
CC(C)N1CCC(NC(=O)NCCC(c2ccccc2)c2ccccc2)CC1 [Z339670416, CC(C)N1CCC(NC(=O)NCCC(c2ccccc2)c2ccccc2)CC1]	1.58	0.1	0.501	–
NC(=O)COc1ccc(NC(=O)NCCC(c2ccccc2)c2ccccc2)cc1 [Z339843288, NC(=O)COc1ccc(NC(=O)NCCC(c2ccccc2)c2ccccc2)cc1]	0.00126	0.00126	0.001	–
O=C(NCc1ccc(-c2nc3ccccc3s2)o1)NC1CCCC(C(F)(F)F)C1 (stereo not shown) [Z353003074, O=C(NCc1ccc(-c2nc3ccccc3s2)o1)NC1CCCC(C(F)(F)F)C1]	0.01	0.00631	0.00501	–
CC1CCCCC1OCCNC(=O)Nc1cccc(OCc2ccccn2)c1 (stereo not shown) [Z416144030, CC1CCCCC1OCCNC(=O)Nc1cccc(OCc2ccccn2)c1]	0.2	0.0158	0.02	–
CC1CCC(NC(=O)Nc2cccc(Cn3nc4ccccn4c3=O)c2)CC1 (stereo not shown) [Z436130862, CC1CCC(NC(=O)Nc2cccc(Cn3nc4ccccn4c3=O)c2)CC1]	0.001	0.000794	0.001	IC50 hsEH ([2]; human enzyme): subnanomolar
CC(=O)CCc1ccc(OCC(=O)N2CCCC(CNC(=O)Nc3ccc(C)cc3)C2)cc1 (stereo not shown) [Z1033382608, CC(=O)CCc1ccc(OCC(=O)N2CCCC(CNC(=O)Nc3ccc(C)cc3)C2)cc1]	3.16	0.501	0.398	–
